Assay results: ChEMBL document CHEMBL6087403 (Bioorg Med Chem Lett, 2025)
The source made the active and inactive calls. The calls are words filed in the database; no cut-off is given here.

Key:
[1] = biological target: Alpha glucosidase (Homo sapiens, UniProt O43451+P10253+P14410+Q2M2H8); test: Inhibition of alpha-glucosidase (unknown origin); type: protein assay
[2] = Antioxidant activity assessed as DPPH radical scavenging activity incubated for 1 hr by spectrophotometric analysis; type: functional

| IC50 [1] [µM] | IC50 [2] [µM] | SMILES | Activity [2] |
| --- | --- | --- | --- |
| 44.4 | 87.3 | CCOC(=O)C1=C(C)NC(SC)N(C)C1c1ccc(C)cc1 (configuration not stated) |  |
| 65.1 | 55.1 | COC(=O)C1=C(C)n2nnnc2N(C)C1c1ccccc1.Cl.Cl (configuration not stated) |  |
| 33.3 | 61.2 | CCOC(=O)C1=C(C)NC(SC)N(C)C1c1ccc([N+](=O)[O-])cc1 (configuration not stated) |  |
| 62.7 | 79.3 | CCOC(=O)C1=C(C)NC(NN)N(C)C1c1cccc(O)c1.Cl.Cl (configuration not stated) |  |
| 47.3 |  | CC1=C(C(=O)[C@@H](C)c2ccccc2)C(c2ccc(C)cc2)NC(=S)N1 (some centres not stated) | inactive |
| 61.1 | 67.8 | CC1=C(C(=O)[C@@H](C)c2ccccc2)C(c2ccccc2)NC(=S)N1 (some centres not stated) |  |
| 39.4 | 33.2 | CCOC(=O)C1=C(C)n2nnnc2N(C)C1c1ccccc1.Cl.Cl (configuration not stated) |  |
| 45.6 | 49.2 | CCOC(=O)C1=C(C)n2nnnc2N(C)C1c1cccc(O)c1.Cl.Cl (configuration not stated) |  |
| 24.2 | 21.4 | CCOC(=O)C1=C(C)NC(SC)N(C)C1c1ccccc1 (configuration not stated) |  |
| 89.5 | 59.8 | CC1=C(C(=O)O)C(c2ccccc2)NC(=S)N1 (configuration not stated) |  |
| 12.5 | 45.3 | CC1=C(C(=O)O)C(c2ccccc2Cl)NC(=S)N1 (configuration not stated) |  |
| 76.2 | 69 | CC1=C(C(=O)[C@H](C)c2ccccc2)C(c2ccccc2)NC(=S)N1 (some centres not stated) |  |
| 23.3 | 31.2 | CC1=C(C(=O)[C@H](C)c2ccccc2)C(c2ccccc2Cl)NC(=S)N1 (some centres not stated) |  |
| 35.9 | 38.8 | CCOC(=O)C1=C(C)NC(SC)N(C)C1c1cccc(OC)c1OC (configuration not stated) |  |
| 72.4 | 66 | CCOC(=O)C1=C(C)NC(NN)N(C)C1c1ccc([N+](=O)[O-])cc1.Cl.Cl (configuration not stated) |  |
| 31.1 | 92.1 | CCOC(=O)C1=C(C)NC(NN)N(C)C1c1ccccc1.Cl.Cl (configuration not stated) |  |
| 39.2 | 90.8 | CC1=C(C(=O)O)C(c2ccc(C)cc2)NC(=S)N1 (configuration not stated) |  |
| 41.2 |  | CC1=C(C(=O)[C@H](C)c2ccccc2)C(c2ccc(C)cc2)NC(=S)N1 (some centres not stated) | inactive |
| 84.2 | 69.5 | COC(=O)C1=C(C)NC(SC)N(C)C1c1ccccc1 (configuration not stated) |  |
| 21.5 | 29.5 | CCOC(=O)C1=C(C)NC(SC)N(C)C1c1cccc(O)c1 (configuration not stated) |  |
| 71.1 | 85.1 | CCOC(=O)C1=C(C)NC(NN)N(C)C1c1ccc(C)cc1.Cl.Cl (configuration not stated) |  |
| 18.9 | 29.8 | CC1=C(C(=O)[C@@H](C)c2ccccc2)C(c2ccccc2Cl)NC(=S)N1 (some centres not stated) |  |
| 61.1 | 68.2 | CCOC(=O)C1=C(C)n2nnnc2N(C)C1c1ccc(C)cc1.Cl.Cl (configuration not stated) |  |

| SMILES | IC50 [1] [µM] | IC50 [2] [µM] | Activity [2] |
| --- | --- | --- | --- |
| COc1ccc(O)c(C(C)(C)C)c1 |  | 44.2 |  |
